According to patent US11872261B2, “Lipoprotein targeting protease inhibitors and uses” (The United States of America, as represented by the …, priority 2016, dated 2024):

Test system: lipoprotein proteome (LDL, HDL-L, HDL-S)
Assay: Lipoprotein proteomics, spectral counting of LDL, HDL-L and HDL-S pools
Assay type: in vivo, human
Conditions: 28 days vs baseline
Procedure: Collected plasma from each subject at baseline (n=10) and after 28 days of rosuvastatin treatment (n=10) was applied to two Superdex 200 columns (GE Healthcare) arranged in series on an Akta FPLC system. The flow rate was set to 0.5 mL/min and 0.5 mL fractions were collected. Fractions were assayed for phosphatidylcholine, total cholesterol, free cholesterol and triglyceride by enzymatic assays (Wako Diagnostics) to determine position of elution for lipoproteins. For each subject, fractions were combined to make LDL (elution vol. 17.5-20 mL), HDL-large (HDL-L; elution vol. 21-23 mL) and HDL-small (HDL-S; elution vol. 23-25 mL) pools, generating a total of 60 samples for MS analysis.
Pooled FPLC fractions were applied to a phospholipid binding resin and washed to isolate lipid bound protein components, as previously described (Gordon et al., J Proteome Res 9: 5239-5249, 2010). Resin bound proteins were then subjected to overnight trypsin digestion at 37° C. Resulting peptides were collected and then reduced with dithiothreitol (200 mM; 30 min at 37° C.) and carbamidomethylated with iodoacetamide (800 mM; 30 min at 25° C.). Digest solutions were dried, reconstituted in 100 μL of water+0.1% formic acid and desalted using ZipTips (Millipore), and stored at −20° C. until MS analysis.
Desalted samples were dried and reconstituted in 20 μL of water+0.1% formic acid and 10 μL was analyzed on a Thermo Orbitrap Velos Mass Spectrometer instrument. Blank runs were performed between each sample to prevent carry over. Peak lists were generated using Proteome Discoverer (version 1.3.0.339) and resulting spectra were searched against the SwissProt database (version 012214), using Mascot (version 2.4.0) to identify protein components of the lipoprotein fractions (fragment ion mass tolerance of 0.80 Da and a parent ion tolerance of 20 PPM). Search criteria included: human taxonomy, fixed modification: carbamidomethylation (C), variable modifications: oxidation (M), deamidation (N, Q) and up to two missed trypsin cleavage sites were allowed. Validation of peptide and protein identifications was performed using Scaffold software (version 4.1.1) and a 1.0% false discovery rate (FDR) for both peptide and protein thresholds and a minimum of 2 identified peptides were required per protein. Calculated decoy FDR for peptide and protein identifications were 0.03% and 0.7%, respectively. Spectral counting was used as a semi-quantitative comparison of protein abundance between baseline and on-treatment samples using normalized spectrum count calculated by the Scaffold software. Comparisons were only performed to estimate the relative abundance of the same protein in the same lipoprotein pool before and after rosuvastatin treatment; no comparisons were made between lipoprotein fractions. Data was analyzed by student's T-test to identify proteins with statistically significant (p<0.05) changes in normalized spectral counts. Because this MS analysis was intended primarily for screening purposes, to identify candidates for hypothesis driven functional experiments, the data analysis was not corrected for multiple comparisons. All MS data have been deposited to the ProteomeXchange Consortium (Vizcaino et al., Nat Biotechnol 32: 223-226, 2014) via the PRIDE partner repository with the dataset identifier PXD002633.
To test our hypothesis that rosuvastatin alters the lipoprotein proteome, we pooled fractions containing LDL and HDL and used mass spectrometry (MS) to analyze the lipid associated protein content of each of these lipoproteins in each subject at baseline and after 28 days on rosuvastatin. The HDL peak was divided into two halves, representing large and small HDL, to gain additional insight given the proteomic complexity of HDL. […]

CC(C)c1nc(N(C)S(C)(=O)=O)nc(-c2ccc(F)cc2)c1/C=C/[C@@H](O)C[C@@H](O)CC(=O)O [rosuvastatin]
change in Ig kappa chain V-II spectral counts (LDL fraction): +68% | change in complement C3 spectral counts (LDL fraction): +71% | magnitude of reductions in protein spectral counts, LDL fraction (LDL fraction): −20 to −71% | change in Ig lambda like polypeptide 5 spectral counts (large HDL): −12% | change in N-acetylmuramoyl-L-alanine amidase spectral counts (large HDL): −69% | change in alpha-1-antitrypsin (A1AT) spectral counts (large HDL): +2438% | change in ceruloplasmin spectral counts (large HDL): +27% | change in clusterin spectral counts (large HDL): −13% | change in kallikrein spectral counts (large HDL): −26% | increase in A1AT spectral counts associated with large HDL (large HDL): 24 fold | change in alpha-1-antichymotrypsin spectral counts (small HDL fraction): −89% | change in apolipoprotein C-III spectral counts (small HDL fraction): −13% | change in complement C2 spectral counts (small HDL fraction): −44% | change in vitronectin spectral counts (small HDL fraction): +23%
